In PMC4447944 (The Journal of Biological Chemistry, 2015):

Legend:
[1] = molecular target: T1, hLIMK2 (Homo sapiens, UniProt P53671); assay: KINOMEscan; type: binding
T1 construct: purchased DiscoverX (KINOMEscan platform)

[2] = molecular target: T2, hDYRK1B (Homo sapiens, UniProt Q9Y463); assay: KINOMEscan; type: binding; details: read-out: Inhibition at the 20 μM dose
T2 construct: purchased DiscoverX

[3] = molecular target: T3, hTSSK1B (Homo sapiens, UniProt Q9BXA7); assay: KINOMEscan; type: binding
T3 construct: purchased DiscoverX
T3 sequence (Q9BXA7 whole entry): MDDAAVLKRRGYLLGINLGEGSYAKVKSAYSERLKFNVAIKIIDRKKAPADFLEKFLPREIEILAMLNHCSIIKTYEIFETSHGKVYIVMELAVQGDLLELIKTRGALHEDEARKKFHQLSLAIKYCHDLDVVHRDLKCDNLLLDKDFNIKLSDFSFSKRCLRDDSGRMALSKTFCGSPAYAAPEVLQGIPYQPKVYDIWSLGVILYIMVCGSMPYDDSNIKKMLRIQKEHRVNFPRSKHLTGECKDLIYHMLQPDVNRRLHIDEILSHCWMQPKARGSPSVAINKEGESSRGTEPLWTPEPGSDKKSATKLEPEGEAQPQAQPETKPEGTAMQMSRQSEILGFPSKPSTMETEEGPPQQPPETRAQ

[4] = molecular target: T4, hCHEK2 (Homo sapiens, UniProt O96017); assay: KINOMEscan; type: binding
T4 construct: purchased DiscoverX

[5] = molecular target: T5, CYP2D6 (Homo sapiens, UniProt P10635); assay: Cytochrome p450 inhibition (Eurofins-CEREP); type: in vitro ADME
T5 construct: Eurofins-CEREP

[6] = molecular target: T6, hYSK4 (Homo sapiens, UniProt Q56UN5); assay: KINOMEscan; type: binding
T6 construct: purchased DiscoverX

[7] = molecular target: T7, hCLK3 (Homo sapiens, UniProt P49761); assay: KINOMEscan; type: binding
T7 construct: purchased DiscoverX

[8] = molecular target: T8, hEGFR(L858R,T790M) (Homo sapiens, UniProt P00533, L858R/T790M); assay: KINOMEscan; type: binding
T8 construct: purchased DiscoverX

[9] = molecular target: T9, hCAMKK1 (Homo sapiens, UniProt Q8N5S9); assay: KINOMEscan; type: binding
T9 construct: purchased DiscoverX

[10] = molecular target: T10, hACVR2B (Homo sapiens, UniProt Q13705); assay: KINOMEscan; type: binding
T10 construct: purchased DiscoverX (KINOMEscan platform)

[11] = molecular target: T11, hMINK (Homo sapiens, UniProt Q8N4C8); assay: KINOMEscan; type: binding
T11 construct: purchased DiscoverX

[12] = molecular target: T12, hFLT4 (Homo sapiens, UniProt P35916); assay: KINOMEscan; type: binding
T12 construct: purchased DiscoverX
T12 sequence (P35916 25-1363): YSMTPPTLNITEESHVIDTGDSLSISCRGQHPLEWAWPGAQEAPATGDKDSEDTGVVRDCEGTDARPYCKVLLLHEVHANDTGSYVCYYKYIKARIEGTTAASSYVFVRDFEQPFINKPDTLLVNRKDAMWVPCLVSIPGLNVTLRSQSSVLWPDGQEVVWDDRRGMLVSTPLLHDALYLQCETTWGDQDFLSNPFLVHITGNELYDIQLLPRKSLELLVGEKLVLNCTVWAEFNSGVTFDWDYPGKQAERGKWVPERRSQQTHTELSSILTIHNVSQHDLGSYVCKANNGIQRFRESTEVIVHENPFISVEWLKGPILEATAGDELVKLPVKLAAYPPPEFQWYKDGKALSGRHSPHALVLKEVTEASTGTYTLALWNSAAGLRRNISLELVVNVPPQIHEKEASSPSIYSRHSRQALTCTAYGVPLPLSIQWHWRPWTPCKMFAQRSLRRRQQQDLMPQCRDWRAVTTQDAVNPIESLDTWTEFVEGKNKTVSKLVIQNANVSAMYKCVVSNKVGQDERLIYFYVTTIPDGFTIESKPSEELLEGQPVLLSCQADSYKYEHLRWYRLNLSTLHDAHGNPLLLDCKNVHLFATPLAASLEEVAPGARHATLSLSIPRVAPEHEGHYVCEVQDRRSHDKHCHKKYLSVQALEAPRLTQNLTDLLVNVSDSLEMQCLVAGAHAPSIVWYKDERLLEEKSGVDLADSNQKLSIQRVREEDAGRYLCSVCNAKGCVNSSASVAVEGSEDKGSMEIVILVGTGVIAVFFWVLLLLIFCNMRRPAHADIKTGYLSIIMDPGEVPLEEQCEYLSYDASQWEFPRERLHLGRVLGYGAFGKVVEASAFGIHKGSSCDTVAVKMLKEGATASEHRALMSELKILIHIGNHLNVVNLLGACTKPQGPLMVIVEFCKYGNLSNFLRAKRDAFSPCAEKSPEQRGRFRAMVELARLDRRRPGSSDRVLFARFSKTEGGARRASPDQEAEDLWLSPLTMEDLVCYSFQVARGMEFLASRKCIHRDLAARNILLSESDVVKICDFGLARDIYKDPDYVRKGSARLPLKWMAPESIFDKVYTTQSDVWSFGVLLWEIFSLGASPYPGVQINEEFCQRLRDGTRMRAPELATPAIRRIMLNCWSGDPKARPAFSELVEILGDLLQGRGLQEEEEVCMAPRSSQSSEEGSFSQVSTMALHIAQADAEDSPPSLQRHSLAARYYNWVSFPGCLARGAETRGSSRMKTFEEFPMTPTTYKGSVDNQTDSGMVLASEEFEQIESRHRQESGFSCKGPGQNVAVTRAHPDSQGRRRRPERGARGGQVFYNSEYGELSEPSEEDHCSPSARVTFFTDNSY

[13] = molecular target: T13, hDYRK1A (Homo sapiens, UniProt Q13627); assay: KINOMEscan; type: binding
T13 construct: purchased DiscoverX

[14] = molecular target: T14, hFGFR3 (Homo sapiens, UniProt P22607); assay: KINOMEscan; type: binding
T14 construct: purchased DiscoverX
T14 sequence (P22607 23-806): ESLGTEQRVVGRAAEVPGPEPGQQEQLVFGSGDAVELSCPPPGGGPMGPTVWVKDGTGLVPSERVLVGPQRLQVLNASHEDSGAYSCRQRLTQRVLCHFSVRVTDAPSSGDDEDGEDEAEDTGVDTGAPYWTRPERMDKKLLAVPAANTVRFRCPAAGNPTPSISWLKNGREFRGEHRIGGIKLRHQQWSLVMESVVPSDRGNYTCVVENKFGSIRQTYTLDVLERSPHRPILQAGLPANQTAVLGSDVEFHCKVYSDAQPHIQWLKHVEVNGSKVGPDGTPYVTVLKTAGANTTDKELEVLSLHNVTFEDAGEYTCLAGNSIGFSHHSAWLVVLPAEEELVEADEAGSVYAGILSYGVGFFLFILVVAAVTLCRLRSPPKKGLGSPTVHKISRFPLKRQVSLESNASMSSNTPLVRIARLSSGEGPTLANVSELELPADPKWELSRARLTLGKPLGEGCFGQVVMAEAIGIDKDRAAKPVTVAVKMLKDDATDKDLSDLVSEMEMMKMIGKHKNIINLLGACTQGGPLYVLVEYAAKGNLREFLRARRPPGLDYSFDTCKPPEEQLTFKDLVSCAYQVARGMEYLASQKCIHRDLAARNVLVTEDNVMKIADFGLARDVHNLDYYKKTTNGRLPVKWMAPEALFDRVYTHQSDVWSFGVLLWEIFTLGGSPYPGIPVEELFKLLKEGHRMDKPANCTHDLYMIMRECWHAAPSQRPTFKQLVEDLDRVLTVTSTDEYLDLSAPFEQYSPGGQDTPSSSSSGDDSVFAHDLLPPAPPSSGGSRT

[15] = molecular target: T15, hVRK2 (Homo sapiens, UniProt Q86Y07); assay: KINOMEscan; type: binding
T15 construct: purchased DiscoverX
T15 sequence (Q86Y07 whole entry): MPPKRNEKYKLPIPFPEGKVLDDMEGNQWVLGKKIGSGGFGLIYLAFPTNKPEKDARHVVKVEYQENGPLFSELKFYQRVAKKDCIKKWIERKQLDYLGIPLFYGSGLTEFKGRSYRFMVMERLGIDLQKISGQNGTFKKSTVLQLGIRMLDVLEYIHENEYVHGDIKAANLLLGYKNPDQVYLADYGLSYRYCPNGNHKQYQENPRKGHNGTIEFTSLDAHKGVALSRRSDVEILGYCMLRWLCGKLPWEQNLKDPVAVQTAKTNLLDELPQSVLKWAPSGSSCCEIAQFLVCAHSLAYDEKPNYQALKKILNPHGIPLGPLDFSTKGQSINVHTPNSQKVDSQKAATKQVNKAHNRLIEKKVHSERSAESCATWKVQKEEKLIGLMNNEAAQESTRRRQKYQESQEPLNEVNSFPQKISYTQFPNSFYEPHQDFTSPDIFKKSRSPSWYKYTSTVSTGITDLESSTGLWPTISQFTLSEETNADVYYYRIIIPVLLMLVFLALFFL

[16] = molecular target: T16, hLCK (Homo sapiens, UniProt P06239); assay: KINOMEscan; type: binding
T16 construct: purchased DiscoverX (KINOMEscan platform)

[17] = molecular target: h5HT2B (Homo sapiens, UniProt P41595); assay: Calcium Mobilization Antagonist (Eurofins-CEREP); details: read-out: % Effect, Inhibition
[18] = molecular target: T17, hAURKC (Homo sapiens, UniProt Q9UQB9); assay: KINOMEscan; type: binding
T17 construct: purchased DiscoverX
T17 sequence (Q9UQB9 whole entry): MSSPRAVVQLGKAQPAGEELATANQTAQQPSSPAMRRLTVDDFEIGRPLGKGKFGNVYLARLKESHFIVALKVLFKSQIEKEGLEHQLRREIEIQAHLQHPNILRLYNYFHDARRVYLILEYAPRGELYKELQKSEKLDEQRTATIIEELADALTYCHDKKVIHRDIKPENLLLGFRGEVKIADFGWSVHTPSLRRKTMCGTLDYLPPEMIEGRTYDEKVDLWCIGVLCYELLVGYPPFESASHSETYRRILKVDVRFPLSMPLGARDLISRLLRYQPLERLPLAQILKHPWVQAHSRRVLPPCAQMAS

[19] = molecular target: T18, hHCK (Homo sapiens, UniProt P08631); assay: KINOMEscan; type: binding
T18 construct: purchased DiscoverX
T18 sequence (P08631 whole entry): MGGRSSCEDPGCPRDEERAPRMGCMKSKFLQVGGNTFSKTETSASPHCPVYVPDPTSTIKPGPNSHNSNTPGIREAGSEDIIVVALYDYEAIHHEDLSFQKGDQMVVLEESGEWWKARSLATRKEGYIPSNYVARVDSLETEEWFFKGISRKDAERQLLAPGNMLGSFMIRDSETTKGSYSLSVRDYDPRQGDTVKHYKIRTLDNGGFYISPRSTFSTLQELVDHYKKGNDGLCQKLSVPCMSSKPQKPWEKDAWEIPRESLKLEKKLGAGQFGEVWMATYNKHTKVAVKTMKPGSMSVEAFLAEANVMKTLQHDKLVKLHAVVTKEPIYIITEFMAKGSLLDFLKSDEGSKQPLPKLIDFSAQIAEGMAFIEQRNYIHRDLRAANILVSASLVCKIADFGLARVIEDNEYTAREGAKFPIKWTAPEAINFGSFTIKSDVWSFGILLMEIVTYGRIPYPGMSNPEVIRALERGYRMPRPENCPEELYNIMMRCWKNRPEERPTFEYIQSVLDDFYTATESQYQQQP

[20] = molecular target: hEGFR(L747-T751del,Sins) (Homo sapiens, UniProt P00533, DEL747-751/INS746S); assay: KINOMEscan; type: binding
[21] = molecular target: T19, hAKT3 (Homo sapiens, UniProt Q9Y243); assay: KINOMEscan; type: binding
T19 construct: purchased DiscoverX

[22] = molecular target: hH1 (Homo sapiens, UniProt P35367); assay: Ca Mobilization Agonist (Eurofins-CEREP); details: @ 13.3 μM
[23] = molecular target: T20, hRARβ (Homo sapiens, UniProt P10826); assay: Nuclear hormone receptor assay (Eurofins-CEREP); details: read-out: Relative IC50
T20 construct: Eurofins-CEREP
T20 sequence (P10826 whole entry): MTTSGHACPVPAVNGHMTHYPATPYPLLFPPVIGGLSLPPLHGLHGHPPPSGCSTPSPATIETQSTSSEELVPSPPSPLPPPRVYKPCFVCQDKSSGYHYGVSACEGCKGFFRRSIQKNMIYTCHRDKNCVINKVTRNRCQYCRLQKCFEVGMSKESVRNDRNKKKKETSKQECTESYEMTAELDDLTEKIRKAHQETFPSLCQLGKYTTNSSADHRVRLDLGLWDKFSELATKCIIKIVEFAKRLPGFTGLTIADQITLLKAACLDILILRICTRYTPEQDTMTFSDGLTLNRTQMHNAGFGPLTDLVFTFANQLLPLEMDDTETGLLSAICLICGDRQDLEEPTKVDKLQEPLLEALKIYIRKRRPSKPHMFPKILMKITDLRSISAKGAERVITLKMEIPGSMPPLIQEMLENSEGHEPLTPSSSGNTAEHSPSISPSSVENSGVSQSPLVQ

[24] = molecular target: T21, hRSK2(Kin.Dom.1-N-term) (Homo sapiens, UniProt P51812); assay: KINOMEscan; type: binding
T21 construct: hRSK2(Kin.Dom.1-N-term); purchased DiscoverX (KINOMEscan platform)

[25] = molecular target: T22, hDYRK2 (Homo sapiens, UniProt Q92630); assay: KINOMEscan; type: binding
T22 construct: purchased DiscoverX

[26] = molecular target: T23, hJAK3(JH1Dom.-catalytic) (Homo sapiens, UniProt P52333); assay: KINOMEscan; type: binding
T23 construct: hJAK3(JH1Dom.-catalytic); purchased DiscoverX (KINOMEscan panel)
T23 sequence (P52333 822-1111 limits assumed): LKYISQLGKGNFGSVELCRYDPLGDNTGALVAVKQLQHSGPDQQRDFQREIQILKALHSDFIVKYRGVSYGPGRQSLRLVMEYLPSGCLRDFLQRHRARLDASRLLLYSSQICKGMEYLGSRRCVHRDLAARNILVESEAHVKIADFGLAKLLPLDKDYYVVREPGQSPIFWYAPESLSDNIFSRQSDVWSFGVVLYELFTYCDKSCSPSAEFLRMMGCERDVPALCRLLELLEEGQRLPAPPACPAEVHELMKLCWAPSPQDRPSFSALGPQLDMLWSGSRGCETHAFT

[27] = molecular target: hADRβ2 (Homo sapiens, UniProt P07550); assay: cAMP Potentiation (Eurofins-CEREP); details: @ 10 μM
hADRβ2, sequence (P07550 whole entry): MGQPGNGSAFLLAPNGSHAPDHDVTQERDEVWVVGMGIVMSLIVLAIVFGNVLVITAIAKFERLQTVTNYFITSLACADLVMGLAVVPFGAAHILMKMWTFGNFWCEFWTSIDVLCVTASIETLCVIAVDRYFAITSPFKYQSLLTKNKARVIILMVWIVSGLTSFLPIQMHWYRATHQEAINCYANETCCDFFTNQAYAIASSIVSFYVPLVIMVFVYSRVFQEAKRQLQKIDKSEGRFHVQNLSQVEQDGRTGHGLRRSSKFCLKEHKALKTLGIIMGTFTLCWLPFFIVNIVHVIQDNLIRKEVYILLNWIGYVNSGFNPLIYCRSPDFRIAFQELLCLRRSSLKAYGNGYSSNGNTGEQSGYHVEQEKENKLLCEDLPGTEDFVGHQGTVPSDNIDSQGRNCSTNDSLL

[28] = molecular target: T24, hMAP4K3 (Homo sapiens, UniProt Q8IVH8); assay: KINOMEscan; type: binding
T24 construct: purchased DiscoverX (KINOMEscan platform)

[29] = molecular target: T25, hAURKB (Homo sapiens, UniProt Q96GD4); assay: KINOMEscan; type: binding
T25 construct: purchased DiscoverX

[30] = molecular target: T26, hEPHA3 (Homo sapiens, UniProt P29320); assay: KINOMEscan; type: binding
T26 construct: purchased DiscoverX

[31] = molecular target: T27, hTRKC (Homo sapiens, UniProt Q16288); assay: KINOMEscan; type: binding
T27 construct: purchased DiscoverX

[32] = molecular target: T28, hRIOK2 (Homo sapiens, UniProt Q9BVS4); assay: KINOMEscan; type: binding
T28 construct: purchased DiscoverX (KINOMEscan platform)

[33] = molecular target: hD2L (Homo sapiens, UniProt P14416); assay: cAMP Potentiation (Eurofins-CEREP); details: @ 10 μM
[34] = molecular target: T29, hBRAF(V600E) (Homo sapiens, UniProt P15056, V600E); assay: KINOMEscan; type: binding
T29 construct: purchased DiscoverX

[35] = molecular target: T30, hLIMK1 (Homo sapiens, UniProt P53667); assay: KINOMEscan; type: binding
T30 construct: purchased DiscoverX (KINOMEscan platform)

[36] = molecular target: T31, hRPS6KA5(Kin.Dom.2-C-term) (Homo sapiens, UniProt O75582); assay: KINOMEscan; type: binding
T31 construct: hRPS6KA5(Kin.Dom.2-C-term); purchased DiscoverX (KINOMEscan platform)

[37] = molecular target: T32, hBUB1 (Homo sapiens, UniProt O43683); assay: KINOMEscan; type: binding
T32 construct: purchased DiscoverX

[38] = molecular target: hM3 (Homo sapiens, UniProt P20309); assay: β-arrestin Antagonist (Eurofins-CEREP); details: read-out: % Effect, Inhibition
[39] = molecular target: T33, hMAP4K4 (Homo sapiens, UniProt O95819); assay: KINOMEscan; type: binding
T33 construct: purchased DiscoverX (KINOMEscan platform)

Cc1cn(CCN2CCN(c3ccccc3-c3cc(C#N)cc(C(=O)NCCCN4CCCC4)c3)CC2)c2ccccc12 [LLY-507, 3-cyano-5-{2-[4-[2-(3-methylindol-1-yl)ethyl]piperazin-1-yl]-phenyl}-N-[(3-pyrrolidin-1-yl)propyl]benzamide]
> 10 µM: IC50 [23]
-2.8%: % Effect, Stimulation [22]
< 50%: inhibition at 20 µM [2]
> 20 µM: IC50 [1] | IC50 [3] | IC50 [4] | IC50 [6] | IC50 [7] | IC50 [8] | IC50 [9] | IC50 [10] | IC50 [11] | IC50 [12] | IC50 [13] | IC50 [14] | IC50 [15] | IC50 [16] | IC50 [18] | IC50 [19] | IC50 [20] | IC50 [21] | IC50 [24] | IC50 [25] | IC50 [26] | IC50 [28] | IC50 [29] | IC50 [30] | IC50 [31] | IC50 [32] | IC50 [34] | IC50 [35] | IC50 [36] | IC50 [37] | IC50 [39]
-23.6%: inhibition at 10 µM [38]
61.2%: % inhibition @ 10 μM [5]
6.8%: inhibition at 10 µM [17]
-27.2%: % Effect, Potentiation [27]
-27.5%: % Effect, Potentiation [33]
